Reference: patent publication US20050272035A1, “Functional screening method” (priority 2002, published 2005)

Tests used:
[1] = tested on: ATF1 (activating transcription factor 1); test: Nuclear trafficking (N/C ratio) of ATF1-EGFP indicator in transiently transfected HeLa cells; format: cell-based; conditions: 1 μM, 5 minutes, scatterplot FIG. 9
Description: Expression vectors encoding cDNA-EGFP indicators were transiently transfected into HeLa cells growing in wells of 96 well microtitre plates by chemically mediated transfection (Fugene, Roche) and cells incubated under standard growth conditions for 24 hours to permit synthesis of indicator fusion proteins. Cells were subsequently stained with DRAQ 5, a cell permeable nuclear DNA binding dye (Biostatus), to fluorescently mark cell nuclei, and all wells imaged with dual laser excitation (EGFP 488 nm, DRAQ 5 633 nm) using an IN Cell Analyzer (Amersham Biosciences). Data for green (EGFP) and red (DRAQ 5) fluorescence were collected for all cells (FIG. 6) and used to determine thresholds for data separation of transfected cells (EGFP fluorescence above threshold) from non-transfected cells (EGFP fluorescence below threshold).
Indicator proteins derived from a range of cDNAs as described for Example 1 were transfected into HeLa cells and allowed to express for 24 hours. Following expression, cells were transferred into serum-free media for 2 hours to allow effects of stimuli from serum factors such as cortisol to decay. […] This algorithm allows the spatial distribution of cDNA-EGFP fusion proteins to be quantitated in expressing cells: a low N/C ratio indicating a cytoplasmic location for the indicator protein, a high N/C ration indicating a nuclear location. […]

[2] = tested on: Cyt-C (EGFP-Cytochrome C); test: Granularity and Membrane Spot image analysis of EGFP-Cytochrome C indicator in HeLa cells; format: cell-based; conditions: staurosporine treated HeLa cells, FIG. 10 inset
Text: A further group of indicator proteins were transfected into HeLa cells and cells imaged before and after exposure to staurosporine as described in Example 2. […] These algorithms return results which quantitate fluorescence in degrees of granularity (i.e. low value indicates uniform distribution, high value indicates punctate distribution) and in terms of membrane localisation.

CN[C@@H]1C[C@H]2O[C@@](C)([C@@H]1OC)n1c3ccccc3c3c4c(c5c6ccccc6n2c5c31)C(=O)NC4 [staurosporine]
response of ATF1 indicator N/C ratio to modulator [1]: specific and differential responses | ratio of outputs of Granularity and Membrane Spot algorithms for Cyt-C indicator [2]: highest differential return from the two algorithms
